Measurements taken from article PMC8843742, “Eltrombopag inhibits TET dioxygenase to contribute to hematopoietic stem cell expansion in aplastic anemia” (The Journal of Clinical Investigation, 2022).

Assays:
[1] = biological target: T1, thrombopoietin receptor (human TPOR) (Homo sapiens, UniProt P40238); assay: STAT5 phosphorylation Western blot in parental vs human TPOR-expressing murine cells, […]; format: cell-based
T1 construct: gene MPL; MPL open reading frame (NM_005373.2) in pCMV-3Tag-3a, expressed in BaF3 and 32D cells
T1 sequence (P40238 26-635): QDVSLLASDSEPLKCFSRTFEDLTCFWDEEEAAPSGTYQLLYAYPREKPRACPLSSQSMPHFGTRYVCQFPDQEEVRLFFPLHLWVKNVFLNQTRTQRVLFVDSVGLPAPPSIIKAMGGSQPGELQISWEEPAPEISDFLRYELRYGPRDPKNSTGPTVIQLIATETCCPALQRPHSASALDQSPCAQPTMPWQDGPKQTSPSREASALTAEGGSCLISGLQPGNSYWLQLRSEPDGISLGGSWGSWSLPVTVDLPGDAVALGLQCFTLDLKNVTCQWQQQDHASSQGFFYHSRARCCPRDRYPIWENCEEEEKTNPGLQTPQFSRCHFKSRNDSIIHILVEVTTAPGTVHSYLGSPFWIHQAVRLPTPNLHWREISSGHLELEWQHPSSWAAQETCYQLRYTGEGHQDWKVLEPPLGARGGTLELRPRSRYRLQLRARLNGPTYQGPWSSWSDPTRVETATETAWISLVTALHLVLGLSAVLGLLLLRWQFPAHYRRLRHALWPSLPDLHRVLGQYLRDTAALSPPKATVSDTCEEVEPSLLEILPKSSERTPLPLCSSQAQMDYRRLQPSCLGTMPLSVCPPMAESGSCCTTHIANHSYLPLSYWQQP

TET3 = biological target: T2, TET3 (Homo sapiens, UniProt O43151); assay: 5hmC ELISA with recombinant protein; format: biochemical
T2 construct: recombinant catalytic domain (BPS Bioscience, 50163)
T2 sequence (O43151 850-1795 limits assumed): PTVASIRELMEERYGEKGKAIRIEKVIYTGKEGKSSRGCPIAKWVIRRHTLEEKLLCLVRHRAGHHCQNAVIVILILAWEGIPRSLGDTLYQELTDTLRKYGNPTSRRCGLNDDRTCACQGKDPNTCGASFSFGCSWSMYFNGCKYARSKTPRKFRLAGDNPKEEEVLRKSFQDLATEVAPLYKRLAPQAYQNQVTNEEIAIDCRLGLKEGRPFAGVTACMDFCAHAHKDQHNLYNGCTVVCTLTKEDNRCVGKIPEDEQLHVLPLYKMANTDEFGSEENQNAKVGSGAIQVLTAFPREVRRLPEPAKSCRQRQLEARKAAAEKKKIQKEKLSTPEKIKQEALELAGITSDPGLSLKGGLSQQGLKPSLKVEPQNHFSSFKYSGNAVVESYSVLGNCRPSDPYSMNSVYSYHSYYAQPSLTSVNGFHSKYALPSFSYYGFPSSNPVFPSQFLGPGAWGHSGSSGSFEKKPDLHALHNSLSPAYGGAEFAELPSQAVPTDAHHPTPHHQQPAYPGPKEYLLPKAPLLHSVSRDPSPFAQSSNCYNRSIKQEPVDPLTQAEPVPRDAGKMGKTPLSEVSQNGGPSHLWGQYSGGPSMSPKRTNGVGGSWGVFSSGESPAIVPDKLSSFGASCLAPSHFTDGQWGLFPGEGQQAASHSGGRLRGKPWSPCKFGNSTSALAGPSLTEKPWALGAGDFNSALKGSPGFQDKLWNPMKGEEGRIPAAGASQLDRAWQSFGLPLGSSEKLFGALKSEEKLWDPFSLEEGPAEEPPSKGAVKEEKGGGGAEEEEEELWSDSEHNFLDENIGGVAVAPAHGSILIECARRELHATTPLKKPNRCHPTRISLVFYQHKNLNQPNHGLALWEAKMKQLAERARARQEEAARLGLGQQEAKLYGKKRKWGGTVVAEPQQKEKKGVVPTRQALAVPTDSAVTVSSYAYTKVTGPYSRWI

TET1 = biological target: T3, TET1 (Homo sapiens, UniProt Q8NFU7); assay: 5hmC ELISA with recombinant protein; format: biochemical
T3 construct: recombinant catalytic domain (Epigentek, E12002-1)
T3 sequence (Q8NFU7 1418-2136 limits assumed): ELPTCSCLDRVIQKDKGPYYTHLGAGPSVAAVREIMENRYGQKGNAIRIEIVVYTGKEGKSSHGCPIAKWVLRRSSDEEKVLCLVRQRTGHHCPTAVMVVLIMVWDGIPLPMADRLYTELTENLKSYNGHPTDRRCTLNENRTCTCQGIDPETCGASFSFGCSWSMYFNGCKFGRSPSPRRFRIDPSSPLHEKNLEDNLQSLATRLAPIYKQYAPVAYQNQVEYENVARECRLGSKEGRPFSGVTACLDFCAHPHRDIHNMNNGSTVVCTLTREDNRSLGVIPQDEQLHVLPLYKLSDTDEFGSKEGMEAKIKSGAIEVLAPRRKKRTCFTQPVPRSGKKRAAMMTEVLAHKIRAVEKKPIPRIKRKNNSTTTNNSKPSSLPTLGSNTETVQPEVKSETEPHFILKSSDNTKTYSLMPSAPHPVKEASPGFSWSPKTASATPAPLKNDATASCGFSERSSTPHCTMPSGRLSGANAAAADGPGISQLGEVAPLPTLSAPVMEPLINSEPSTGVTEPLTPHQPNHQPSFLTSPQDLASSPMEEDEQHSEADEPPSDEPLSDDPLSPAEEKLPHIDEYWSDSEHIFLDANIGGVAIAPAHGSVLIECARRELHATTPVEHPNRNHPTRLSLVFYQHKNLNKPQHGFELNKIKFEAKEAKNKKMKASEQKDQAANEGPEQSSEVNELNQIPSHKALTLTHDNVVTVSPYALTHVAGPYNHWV

| IC50 (TET3) [nM] | IC50 (TET1) [nM] | Structure (SMILES) | STAT5 phosphorylation Western blot in parental vs human TPOR-expressing murine c [1] |
| --- | --- | --- | --- |
|  |  | O=C(Nc1nc(-c2cc(Cl)cs2)c(N2CCN(C3CCCCC3)CC2)s1)c1cnc(N2CCC(C(=O)O)CC2)c(Cl)c1 [Apag, avatrombopag] | a chemically unrelated non-peptidyl TPOR agonist) all activated the JAK/STAT pathway to the same extent in these cells |
| 1800 ± 100 | 1000 ± 100 | CC1=NN(c2ccc(C)c(C)c2)C(=O)/C1=N\Nc1cccc(-c2cccc(C(=O)O)c2)c1O [Epag, Eltrombopag] | Reconstitution of human TPOR in murine cells restored STAT5 phosphorylation without any measurable changes in the dioxygenase activity. |
